This is an account of results in ChEMBL document CHEMBL4118154, “Discovery of evocalcet, a next-generation calcium-sensing receptor agonist for the treatment of hyperparathyroidism” (Bioorg Med Chem Lett, 2018).

Data set [1] concerns the target T1, Extracellular calcium-sensing receptor (Homo sapiens) (UniProt P41180).
T1 sequence (whole entry): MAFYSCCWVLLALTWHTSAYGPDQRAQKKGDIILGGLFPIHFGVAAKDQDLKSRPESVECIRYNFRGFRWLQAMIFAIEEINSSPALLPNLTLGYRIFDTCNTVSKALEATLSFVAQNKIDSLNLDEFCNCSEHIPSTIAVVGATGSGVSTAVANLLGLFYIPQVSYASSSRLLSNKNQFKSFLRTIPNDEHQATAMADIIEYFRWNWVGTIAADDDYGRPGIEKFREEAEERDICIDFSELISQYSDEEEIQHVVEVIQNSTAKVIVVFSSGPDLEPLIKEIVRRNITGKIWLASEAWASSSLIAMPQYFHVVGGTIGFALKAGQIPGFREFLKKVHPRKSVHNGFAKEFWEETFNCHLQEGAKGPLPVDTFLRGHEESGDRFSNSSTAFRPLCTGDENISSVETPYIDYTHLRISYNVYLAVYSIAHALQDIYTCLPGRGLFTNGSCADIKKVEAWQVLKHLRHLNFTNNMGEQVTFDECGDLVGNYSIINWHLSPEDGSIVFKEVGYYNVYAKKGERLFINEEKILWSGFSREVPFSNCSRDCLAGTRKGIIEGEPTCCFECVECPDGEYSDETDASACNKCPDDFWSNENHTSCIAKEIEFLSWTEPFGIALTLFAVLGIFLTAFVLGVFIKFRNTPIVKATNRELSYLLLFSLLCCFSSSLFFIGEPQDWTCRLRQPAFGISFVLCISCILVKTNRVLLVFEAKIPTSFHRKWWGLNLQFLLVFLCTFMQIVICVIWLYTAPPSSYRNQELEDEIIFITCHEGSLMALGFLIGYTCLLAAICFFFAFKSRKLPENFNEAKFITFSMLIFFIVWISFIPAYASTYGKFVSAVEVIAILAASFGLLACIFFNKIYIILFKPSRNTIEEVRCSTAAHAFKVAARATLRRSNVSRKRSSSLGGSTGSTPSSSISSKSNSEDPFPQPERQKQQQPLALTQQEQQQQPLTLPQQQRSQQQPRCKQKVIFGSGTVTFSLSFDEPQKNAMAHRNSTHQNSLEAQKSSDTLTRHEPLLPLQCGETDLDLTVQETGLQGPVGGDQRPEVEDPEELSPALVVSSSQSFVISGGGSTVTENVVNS
Briefly: Binding affinity to human CaSR expressed in HEK293 cells after 30 mins in presence of NPS 568 by liquid scintillation counting method. Format: cell-based.

The target of data set [2] is CYP2D6 (Homo sapiens, UniProt P10635). The data set can be described thus: Inhibition of CYP2D6 (unknown origin). Format: ADME.
Chain of CYP2D6 (P10635 whole entry): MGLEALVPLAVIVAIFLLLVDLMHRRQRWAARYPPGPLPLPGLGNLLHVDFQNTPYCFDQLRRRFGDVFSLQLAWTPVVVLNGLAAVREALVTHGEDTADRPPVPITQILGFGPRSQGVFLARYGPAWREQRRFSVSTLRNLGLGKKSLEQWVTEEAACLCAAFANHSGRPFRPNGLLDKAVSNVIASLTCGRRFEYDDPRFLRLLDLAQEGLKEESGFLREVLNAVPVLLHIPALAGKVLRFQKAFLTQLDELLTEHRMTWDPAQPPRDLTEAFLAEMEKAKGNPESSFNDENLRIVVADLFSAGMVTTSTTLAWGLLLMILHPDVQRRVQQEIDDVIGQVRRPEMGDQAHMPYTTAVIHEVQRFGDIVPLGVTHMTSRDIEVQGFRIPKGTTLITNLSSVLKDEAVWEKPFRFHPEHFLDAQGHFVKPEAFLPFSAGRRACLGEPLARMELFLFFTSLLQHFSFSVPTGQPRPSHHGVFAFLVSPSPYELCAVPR
A short description of data set [3]: Intrinsic clearance in human liver microsomes assessed per protein. Format: ADME, microsome. The settings on record: read-out: CLH. For orientation: Microsomes from liver hold many membrane-bound enzymes, among them those of drug oxidation.
A short description of data set [4]: Intrinsic clearance in rat liver microsomes assessed per protein. Format: ADME, microsome. Particulars: read-out: CLH.
Data set [5] can be described thus: Cmax in rat at 1 mg/kg, po. Format: ADME, organism-based. Further details: dose 1 mg/kg, route oral. The settings on record: in vivo.
Data set [6] is described as follows: AUC (0 to infinity) in rat at 1 mg/kg, po. Format: ADME, organism-based. Particulars: in vivo. Further details: dose 1 mg/kg, route oral, time infinity.
A short description of data set [7]: Oral bioavailability in rat at 1 mg/kg. Format: ADME, organism-based. The settings on record: in vivo.
Data set [8] is described as follows: Initial plasma concentration in rat at 0.3 mg/kg, iv. Format: ADME, organism-based.
A short description of data set [9]: AUC (0 to infinity) in rat at 0.3 mg/kg, iv. Format: ADME, organism-based. Further details: dose 0.3 mg/kg, route intravenous, time infinity. Particulars: in vivo.
The nature of data set [10]: Total clearance in rat at 0.3 mg/kg, iv. Format: ADME, organism-based. The settings on record: in vivo.
Data set [11] can be described thus: Cmax in monkey at 1 mg/kg, po. Format: ADME, organism-based, Macaca mulatta. Also noted: dose 1 mg/kg, route oral. The settings on record: rhesus monkey, in vivo.
The nature of data set [12]: Tmax in monkey at 1 mg/kg, po. Format: ADME, organism-based, Macaca mulatta. Particulars: rhesus monkey, in vivo.
Data set [13] in a line: AUC (0 to infinity) in monkey at 1 mg/kg, po. Format: ADME, organism-based, Macaca mulatta. Further details: dose 1 mg/kg, time infinity, route oral. The settings on record: rhesus monkey, in vivo.
Data set [14] in a line: Half life in monkey at 1 mg/kg, po. The settings on record: rhesus monkey, in vivo. Format: ADME, organism-based, Macaca mulatta.
Data set [15] can be described thus: Oral bioavailability in monkey at 1 mg/kg. Format: ADME, organism-based, Macaca mulatta. The settings on record: rhesus monkey, in vivo.
A short description of data set [16]: Initial plasma concentration in monkey at 0.3 mg/kg, iv. Format: ADME, organism-based, Macaca mulatta. The settings on record: rhesus monkey.
A short description of data set [17]: AUC (0 to infinity) in monkey at 0.3 mg/kg, iv. Format: ADME, organism-based, Macaca mulatta. Also noted: dose 0.3 mg/kg, time infinity, route intravenous. The settings on record: rhesus monkey, in vivo.
A short description of data set [18]: Half life in monkey at 0.3 mg/kg, iv. Format: ADME, organism-based, Macaca mulatta. The settings on record: rhesus monkey, in vivo.
Data set [19] is described as follows: Volume of distribution at steady state in monkey at 0.3 mg/kg, iv. Format: ADME, organism-based, Macaca mulatta. The settings on record: rhesus monkey, in vivo, read-out: Vdss.
The target of data set [20] is T2, CYP2A6 (Homo sapiens, UniProt P11509).
T2 sequence (P11509 whole entry): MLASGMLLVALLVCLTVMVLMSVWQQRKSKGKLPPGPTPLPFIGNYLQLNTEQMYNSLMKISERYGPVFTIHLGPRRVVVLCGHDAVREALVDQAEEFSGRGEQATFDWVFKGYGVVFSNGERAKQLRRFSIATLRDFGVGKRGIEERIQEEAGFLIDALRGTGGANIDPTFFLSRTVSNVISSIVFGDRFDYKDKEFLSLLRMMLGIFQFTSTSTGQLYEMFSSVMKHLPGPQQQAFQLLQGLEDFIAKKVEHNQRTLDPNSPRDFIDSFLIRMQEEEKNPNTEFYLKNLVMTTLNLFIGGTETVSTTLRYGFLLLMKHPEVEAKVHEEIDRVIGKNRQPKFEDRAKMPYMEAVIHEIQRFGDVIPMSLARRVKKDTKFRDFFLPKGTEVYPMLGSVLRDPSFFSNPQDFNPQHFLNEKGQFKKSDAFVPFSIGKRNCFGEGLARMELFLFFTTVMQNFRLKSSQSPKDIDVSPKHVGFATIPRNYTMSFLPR
The data set can be described thus: Inhibition of CYP2A6 (unknown origin). Format: ADME.

Data set [21] concerns the target T3, CYP2C8 (Homo sapiens, UniProt P10632).
T3 sequence (P10632 whole entry): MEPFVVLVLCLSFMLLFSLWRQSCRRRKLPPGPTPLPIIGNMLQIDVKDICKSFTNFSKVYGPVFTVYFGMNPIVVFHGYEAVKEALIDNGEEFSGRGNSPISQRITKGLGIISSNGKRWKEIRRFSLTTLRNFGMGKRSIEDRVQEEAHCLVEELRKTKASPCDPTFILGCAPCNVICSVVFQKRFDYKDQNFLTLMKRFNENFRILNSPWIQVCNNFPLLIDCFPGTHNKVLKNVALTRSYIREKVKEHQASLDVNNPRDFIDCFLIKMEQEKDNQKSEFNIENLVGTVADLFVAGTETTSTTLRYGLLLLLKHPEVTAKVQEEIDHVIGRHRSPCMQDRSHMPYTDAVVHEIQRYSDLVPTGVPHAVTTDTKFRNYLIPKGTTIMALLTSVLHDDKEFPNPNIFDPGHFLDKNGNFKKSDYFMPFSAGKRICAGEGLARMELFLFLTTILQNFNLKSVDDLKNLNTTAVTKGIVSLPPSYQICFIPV
Briefly: Inhibition of CYP2C8 (unknown origin). Format: ADME.

For data set [22], the target named is CYP2C9 (Homo sapiens, UniProt P11712). The data set can be described thus: Inhibition of CYP2C9 (unknown origin). Format: ADME.
Chain of CYP2C9 (P11712 whole entry): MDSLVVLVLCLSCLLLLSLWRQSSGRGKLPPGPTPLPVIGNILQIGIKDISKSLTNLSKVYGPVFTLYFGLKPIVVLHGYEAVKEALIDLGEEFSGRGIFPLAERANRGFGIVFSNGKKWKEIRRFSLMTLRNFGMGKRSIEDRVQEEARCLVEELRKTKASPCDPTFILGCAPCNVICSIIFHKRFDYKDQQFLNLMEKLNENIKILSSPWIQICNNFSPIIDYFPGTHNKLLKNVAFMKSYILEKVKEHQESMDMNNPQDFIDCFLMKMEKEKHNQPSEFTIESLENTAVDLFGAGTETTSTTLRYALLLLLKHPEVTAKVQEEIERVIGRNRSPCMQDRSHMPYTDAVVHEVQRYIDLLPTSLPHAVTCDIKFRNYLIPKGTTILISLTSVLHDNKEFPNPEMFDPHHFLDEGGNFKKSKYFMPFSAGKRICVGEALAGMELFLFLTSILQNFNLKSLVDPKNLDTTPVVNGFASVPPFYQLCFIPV
Data set [23] concerns the target CYP2C19 (Homo sapiens, UniProt P33261). The data set can be described thus: Inhibition of CYP2C19 (unknown origin). Format: ADME.
Data set [24] addresses CYP3A4/5 (Homo sapiens, UniProt P08684+P20815). Briefly: Inhibition of CYP3A4/5 (unknown origin). Format: ADME, protein assay.

The source made the active and inactive calls. The rule behind the calls is not given here. Some results are limits rather than exact numbers.

For orientation: IC50 means the concentration needed to halve the response being measured. A word on the Cmax: it is the peak of the concentration-time curve. In general, AUC(0-inf) refers to total exposure, with the tail of the curve extrapolated. For orientation: bioavailability means the share of a dose that reaches the circulation, judged against a reference dose that is usually intravenous. In general, clearance refers to the volume of plasma or blood freed of the substance per unit of time. What is called Tmax is the time from dosing to the highest level. By half-life is commonly meant how long it takes for the measured level to halve.

Chain of CYP2C19 (P33261 whole entry): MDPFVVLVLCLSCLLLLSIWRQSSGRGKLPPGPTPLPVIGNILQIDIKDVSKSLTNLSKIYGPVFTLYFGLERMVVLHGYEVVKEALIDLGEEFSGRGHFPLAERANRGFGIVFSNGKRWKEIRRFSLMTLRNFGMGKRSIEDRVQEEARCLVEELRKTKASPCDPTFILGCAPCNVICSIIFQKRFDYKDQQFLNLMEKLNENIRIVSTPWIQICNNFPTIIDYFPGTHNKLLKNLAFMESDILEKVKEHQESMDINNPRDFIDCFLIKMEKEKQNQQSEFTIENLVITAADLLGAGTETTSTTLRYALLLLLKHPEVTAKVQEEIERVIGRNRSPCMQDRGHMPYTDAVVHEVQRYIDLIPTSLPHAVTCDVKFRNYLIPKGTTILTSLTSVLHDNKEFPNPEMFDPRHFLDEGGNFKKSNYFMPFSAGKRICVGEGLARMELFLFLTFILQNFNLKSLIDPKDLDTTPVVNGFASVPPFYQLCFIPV

As for `C[C@@H](N[C@H]1CCN(c2ccc(CC(=O)O)cc2)C1)c1cccc2ccccc12.Cl.Cl`, the result in data set [1] was inactive. For the same compound, the concentration for half-maximal inhibition (IC50) in data set [2], in data set [20], in [21], in data set [22], in [23] and in data set [24] was > 50 µM throughout. Further, the microsomal CLint in data set [3] was found to be 68 µL/min/mg; in data set [4], 34 µL/min/mg. The Cmax in [5] worked out at 2190 ng/mL; in data set [11] it was 746 ng/mL. In addition, the AUC(0-inf) in data set [6] came out at 8440 ng·h/mL; in data set [9], 3010 ng·h/mL; in [13], 1660 ng·h/mL; in [17] it was 987 ng·h/mL. For the same compound, the bioavailability in data set [7] was 84.2%; in data set [15], 55.8%. In addition, the C0 in [8] is 1080 ng/mL; in data set [16], 1630 ng/mL. In data set [10], the clearance was 1.67 mL/min/kg. Besides, the Tmax in data set [12] turned out to be 1.38 h. Besides, the half-life in [14] is 8.94 h; in data set [18], 10.2 h. In addition, the Vd in data set [19] was found to be 0.716 L/kg.
